{
  "source": "patent US11534457B2",
  "about": "“Use of dextran sulfate” (priority 2017, dated 2022)",
  "system": "/Mphg system [HUVEC and M1 macrophages+Zymosan (TLR2 ligand)]",
  "test": "BioMAP /Mphg system",
  "format": "cell-based, Human",
  "source_text": "In this study LMW-DS was characterized by profiling in the BioMAP® Diversity PLUS panel. The BioMAP® panel consists of human primary cell-based systems designed to model different aspects of the human body in an in vitro format. The 12 systems in the BioMAP® Diversity PLUS panel (Table 32) allow test agent characterization in an unbiased way across a broad set of systems modeling various human disease states. The BioMA®P systems are constructed with one or more primary cell types from healthy human donors, with stimuli, such as cytokines or growth factors, added to capture relevant signaling networks that naturally occur in human tissue or pathological conditions. Vascular biology is modeled in both a Th1 (3C system) and a Th2 (4H system) inflammatory environment, as well as in a Th1 inflammatory state specific to arterial smooth muscle cells (CASM3C system). […]\nSystems are derived from either single cell types or co-culture systems. […] Test agents prepared in either DMSO (small molecules; final concentration 0.1%) or PBS (biologics) are added at the indicated concentrations 1-hr before stimulation, and remain in culture for 24-hrs or as otherwise indicated (48-hrs, MyoF system; 72-hrs, BT system (soluble readouts); 168-hrs, BT system (secreted IgG)). […]",
  "data": [
    {"substance": "low molecular weight dextran sulfate [LMW-DS]", "values": [
      {"measurement": "Increased biomarker activity", "value": "IL-8, CD69"}
    ]}
  ]
}
